Results published in patent US12077501B2, “Compounds and compositions for intracellular delivery of agents” (ModernaTX, Inc., priority 2017, dated 2024).

How the values were obtained:
[1] = Lipid purity change after storage in EtOH for 96 h at 25 or 37 °C; assay type: physicochemical
Procedure, shortened: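 Lipid stability was assessed as purity after storage in ethanol for 96 h at 25 °C or 37 °C.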

[2] = Lipid clearance: % dose remaining in liver of CD-1 mice; assay type: in vivo; settings: intravenous, 0.5 mg/kg, CD-1 mouse, Table 8a
Procedure, shortened: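 Mice (CD-1) received nanoparticle compositions formulated with the disclosed compounds at 0.5 mpk. Expressed hEPO was then quantified, and clearance was assessed alongside.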

hEPO expression [3] = assay: hEPO expression in CD-1 mice compared with MC3; assay type: in vivo; settings: intravenous, 0.5 mpk, Table 7e
Text: (§1) In contrast, hEPO expression in rats induced by administration of a nanoparticle composition including a compound according to one of formulae (I), (Ia1)-(Ia6), (Ib), (II), (IIa), (III), and (IIIa) was substantially […] than that measured for MC3. […] Tables 7c and 7d show additional protein expressions and clearance data from compositions with various compounds disclosed herein as compared to with MC3. Tables 7e, 7f and 7g show hEPO expression data in CD-1 mice at a dose of 0.5 mpk.

[4] = Particle size and polydispersity index of nanoparticle compositions (Zetasizer Nano ZS); assay type: physicochemical
Method: A Zetasizer Nano ZS (Malvem Instruments Ltd, Malvem, Worcestershire, UK) can be used to determine the particle size, the polydispersity index (PDI) and the zeta potential of the nanoparticle compositions in 1×PBS in determining particle size and 15 mM PBS in determining zeta potential.

[5] = Encapsulation efficiency of RNA (QUANT-IT RIBOGREEN RNA assay); assay type: physicochemical
Procedure, shortened: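 Samples diluted to about 5 μg/mL RNA in TE buffer pH 7.5, treated with buffer or 2% Triton X-100 for 15 min at 37° C, then stained with RiboGreen (1:100). Fluorescence at about 480/520 nm, blank-subtracted; free RNA fraction is intact over Triton-disrupted signal.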

[6] = pKa of nanoparticle compositions; assay type: physicochemical; settings: Table 1c
[7] = Lipid clearance: % dose remaining, Tables 7c and 8b-8e (species not given); assay type: in vivo
Text: as §1

hEPO expression [8] = assay: hEPO (miR126 + miR142) mRNA expression, Tables 8b-8e; assay type: in vivo; settings: for AUC: Table 8b; for AUC (mIU/mL*h): lipid:Chol:PEG 1 50:47.5:2.5, Table 8e
[9] = Table 1c, nanoparticle compositions
[10] = Table 1d, Formulated with lipid:Chol:DOPE:PEG 1 40:38.5:20:1.5
[11] = lipid:Chol:PEG 1 50:47.5:2.5, Table 8e

| SMILES | Lipid % change purity in EtOH, 25° C., 96 h [1] | Lipid % change purity in EtOH, 37° C., 96 h [1] | % Dose Remaining 24 hr [2] | AUC (p/s*h) CD-1 mice 0.5 mpk (hEPO expression [3]) | PDI [4, 9] | Size (nm) [4, 9] | EE (%) [5, 9] | pKa [6] | % Dose Remaining (liver, 24 h) [7, 11] | AUC (mIU/mL*h) (hEPO expression [8]) | also measured |
| --- | --- | --- | --- | --- | --- | --- | --- | --- | --- | --- | --- |
| CCCCCCCCCCCCCCN(CCCCCC(=O)OCCCCCCC)CCC1CCCN(C(=O)CN(CCCCCCCCC)CCN(CCCCCCCCC)CCCCCCCCC)C1 (stereo not drawn) [Compound 121, Heptyl 6-((2-(1-(N-(2-(dinonylamino)ethyl)-N-nonylglycyl)piperidin-3-yl)ethyl)(tetradecyl)amino)hexanoate] | 0.3% | 1.5% | 13.97% | 2.84E+07 p/s*h | 0.22 | 75.7 nm | 98.6% | 6.50 | – | – | – |
| CCCCCCCCCCCCCCN(CCCOC(=O)CCCCCCCCC)CCC1CCCN(C(=O)CN(CCCCCCCCC)CCN(CCCCCCCCC)CCCCCCCCC)C1 (stereo not drawn) [Compound 122, 3-((2-(1-(N-(2-(Dinonylamino)ethyl)-N-nonylglycyl)piperidin-3-yl)ethyl)(tetradecyl)amino)propyl decanoate] | 1% | 4.1% | 0.05% | 5.71E+07 p/s*h | 0.23 | 77.1 nm | 99.1% | 6.44 | – | – | – |
| CCCCCCCCCCCCCCN(CCCCCCCC(=O)OCCCCC)CCC1CCN(C(=O)CN(CCCCCCCCC)CCN(CCCCCCCCC)CCCCCCCCC)C1 (stereo not drawn) [Compound 124, Pentyl 8-((2-(1-(N-(2-(dinonylamino)ethyl)-N-nonylglycyl)pyrrolidin-3-yl)ethyl)(tetradecyl)amino)octanoate] | −4.6% | −3.5% | 5.60% | 3.88E+07 p/s*h | 0.21 | 92.7 nm | 99.2% | 6.94 | – | – | – |
| CCCCCCCCCCCCCCN(CCCOC(=O)CCCCCCCCC)CCC1CCN(C(=O)CN(CCCCCCCCC)CCN(CCCCCCCCC)CCCCCCCCC)C1 (stereo not drawn) [Compound 126, 3-((2-(1-(N-(2-(Dinonylamino)ethyl)-N-nonylglycyl)pyrrolidin-3-yl)ethyl)(tetradecyl)amino)propyl decanoate] | 0.6% | 2.2% | 0.09% | 6.24E+07 p/s*h | 0.24 | 87.0 nm | 98.7% | 6.76 | – | – | – |
| CCCCCCCCCCCCCCN(CCCCCCCCCCCC(=O)OC)CCC1CCN(C(=O)CN(CCCCCCCCC)CCN(CCCCCCCCC)CCCCCCCCC)C1 (stereo not drawn) [Compound 127, Methyl 12-((2-(1-(N-(2-(dinonylamino)ethyl)-N-nonylglycyl)pyrrolidin-3-yl)ethyl)(tetradecyl)amino)dodecanoate] | 2.7% | 2.9% | 0.86% | 3.45E+07 p/s*h | 0.20 | 79.8 nm | 99.5% | 6.81 | – | – | – |
| CCCCCCCCCN(CCCCCCCCC)CCOC(=O)C1CCC(C(=O)OCCN(CCCCCCCCC)CCN(CCCCCCCCC)CCCCCCCCC)CC1 (stereo not drawn) [Compound 128, 1-(2-(Dinonylamino)ethyl) 4-(2-((2-(dinonylamino)ethyl)(nonyl)amino)ethyl) cyclohexane-1,4-dicarboxylate] | 6.9% | 12.2% | 52.19% | 3.04E+05 p/s*h | 0.20 | 68.0 nm | 97.1% | 4.93 | – | – | – |
| CCCC/C=C\CCCCCCCCN(CCCOC(=O)CCCCCCCCC)CC(=O)N1CCN(C(=O)CN(CCCCCCCCC)CCN(CCCCCCCCC)CCCCCCCCC)CC1 [Compound 140, (Z)-3-((2-(4-(N-(2-(Dinonylamino)ethyl)-N-nonylglycyl)piperazin-1-yl)-2-oxoethyl)(tetradec-9-en-1-yl)amino)propyl Decanoate] | – | – | – | – | – | – | – | – | – | – | % Dose Remaining (liver, 24 h) ([7]; Table 8b): 1.66%; PDI [4, 10]: 0.14; Size (nm) [4, 10]: 131.1 nm; AUC (hEPO expression [8]): 4.55e+07 pg·h/mL; EE (%) [5, 10]: 86.9% |
| CCCCCCCCCCCCCCN(C/C=C\COC(=O)CCCCCCCC)CC(=O)N1CCN(C(=O)CN(CCCCCCCCC)CCN(CCCCCCCCC)CCCCCCCCC)CC1 [Compound 141, (Z)-4-((2-(4-(N-(2-(dinonylamino)ethyl)-N-nonylglycyl)piperazin-1-yl)-2-oxoethyl)(tetradecyl)amino)but-2-en-1-yl nonanoate] | – | – | – | – | – | – | – | – | – | – | % Dose Remaining (liver, 24 h) ([7]; Table 8b): 1.41%; PDI [4, 10]: 0.15; Size (nm) [4, 10]: 131.5 nm; AUC (hEPO expression [8]): 2.7e+07 pg·h/mL; EE (%) [5, 10]: 97.6% |
| CCCCCCCCCCN(CCCCCCCCCC)CCCC(=O)N1CCN(C(=O)CCCN(CCCCCCCCCC)CCCCCCCCCC)CC1 [Compound 146, 1,1′-(Piperazine-1,4-diyl)bis(4-(didecylamino)butan-1-one)] | – | – | – | – | – | – | – | – | – | – | % Dose Remaining (liver, 24 h) ([7]; Table 8b): 81.04%; AUC (hEPO expression [8]): 1.27e+07 pg·h/mL |
| CCCCCCCCCN(CCCCCCCCC)CCN(CCCCCCCCC)CC(=O)N(C)CCN(C)C(=O)CN(CCCCCCCCC)CCCCCCCCC [Compound 151, 2-(Dinonylamino)-N-(2-(2-((2-(dinonylamino)ethyl)(nonyl)amino)-N-methylacetamido)ethyl)-N-methylacetamide] | −0.7% | 2.1% | 75.96% | 1.54E+08 p/s*h | 0.18 | 77.4 nm | 98.8% | 7.46 | – | – | – |
| CCCCCCCCCN(CCCCCCCCC)CCN(CCCCCCCCC)CC(=O)N(C)CCN(C)C(=O)CN(CCCCCCCCC)CCCC(=O)OCCCCC [Compound 152, Pentyl 8,11-dimethyl-5,14,17-trinonyl-7,12-dioxo-5,8,11,14,17-pentaazahexacosanoate] | 0% | 2% | 34.01% | 1.09E+08 p/s*h | 0.16 | 79.1 nm | 98.5% | 7.48 | – | – | – |
| CCCCCCCCCN(CCCCCCCCC)CCN(CCCCCCCCC)CC(=O)NCCNC(=O)CN(CCCCCCCCC)CCCCCCCCC [Compound 153, 2-(dinonylamino)-N-(2-(2-((2-(dinonylamino)ethyl)(nonyl)amino)acetamido)ethyl)acetamide] | – | – | – | – | – | – | – | – | – | – | % Dose Remaining (liver, 24 h) ([7]; Table 8b): 84.71%; PDI [4, 10]: 0.23; Size (nm) [4, 10]: 116.7 nm; AUC (hEPO expression [8]): 5.62e+07 pg·h/mL; EE (%) [5, 10]: 97.2% |
| CCCCCCCCCOC(=O)CCCCCCCN(CCCCCCCC(=O)OCCCCCCCCC)CCOCCOCCN(CCCCCCCCC)CCCCCCCCC [Compound 173, Nonyl 18-nonyl-9-(8-(nonyloxy)-8-oxooctyl)-12,15-dioxa-9,18-diazaheptacosanoate] | – | – | – | – | – | – | – | – | 8.55% | 6.70E+06 mIU/mL*h | – |
| CCCCCCCCCOC(=O)CCCCCCCN(CCCCCCCC(=O)OC(CCCCCCCC)CCCCCCCC)CCOCCOCCN(CCCCCCCCC)CCCCCCCCC [Compound 174, Heptadecan-9-yl 18-nonyl-9-(8-(nonyloxy)-8-oxooctyl)-12,15-dioxa-9,18-diazaheptacosanoate] | – | – | – | – | – | – | – | – | 30.05% | 5.03E+07 mIU/mL*h | – |
| CCCCCCCCCOC(=O)CCCCCCCN(CCCCCCCC(=O)OCCCCCCCCC)CCCCCN(CCCCCCCCC)CCCCCCCCC [Compound 177, Dinonyl 8,8′-((5-(dinonylamino)pentyl)azanediyl)dioctanoate] | – | – | – | – | – | – | – | – | 35.91% | 6.84E+07 mIU/mL*h | – |
| CCCCCCCCCOC(=O)CCCCCCCN(CCCCCCCC(=O)OC(CCCCCCCC)CCCCCCCC)CCCCCN(CCCCCCCCC)CCCCCCCCC [Compound 178, Heptadecan-9-yl 8-((5-(dinonylamino)pentyl)(8-(nonyloxy)-8-oxooctyl)amino)octanoate] | – | – | – | – | – | – | – | – | 44.93% | 8.44E+07 mIU/mL*h | – |
| CCCCCCCCCOC(=O)CCCCCCCN(CCCCCCCC(=O)OCCCCCCCCC)CCOCCN(CCCCCCCCC)CCCCCCCCC [Compound 179, Dinonyl 8,8′-((2-(2-(dinonylamino)ethoxy)ethyl)azanediyl)dioctanoate] | – | – | – | – | – | – | – | – | 26.22% | 7.79E+06 mIU/mL*h | – |
| CCCCCCCCCOC(=O)CCCCCCCN(CCCCCCCC(=O)OC(CCCCCCCC)CCCCCCCC)CCOCCN(CCCCCCCCC)CCCCCCCCC [Compound 180, Heptadecan-9-yl 8-((2-(2-(dinonylamino)ethoxy)ethyl)(8-(nonyloxy)-8-oxooctyl)amino)octanoate] | – | – | – | – | – | – | – | – | 50.47% | 6.53E+07 mIU/mL*h | – |
